Patent US20030143191A1, “Chemokine beta-1 fusion proteins” (priority 2001, published 2003)

What was measured:
HIV = details: cited from earlier work
NF-KB = test: NF-KB/SV40/SEAP reporter assay in Jurkat T-cells; type: cell-based; details: NF-KB/SV40/SEAP/Neo Jurkat T-cells; 0.1, 1, 10 ng; positive control
Excerpt: NF-KB (Nuclear Factor KB) is a transcription factor activated by a wide variety of agents including the inflammatory cytokines IL-1 and TNF, CD30 and CD40, lymphotoxin-alpha and lymphotoxin-beta, by exposure to LPS or thrombin, and by expression of certain viral gene products. As a transcription factor, NF-KB regulates the expression of genes involved in immune cell activation, control of apoptosis (NF-KB appears to shield cells from apoptosis), B and T-cell development, anti-viral and antimicrobial responses, and multiple stress responses.
Due to its central role and ability to respond to a range of stimuli, reporter constructs utilizing the NF-KB promoter element are used to screen the fusion protein. Activators or inhibitors of NF-KB would be useful in treating, preventing, and/or diagnosing diseases. For example, inhibitors of NF-KB could be used to treat those diseases related to the acute or chronic activation of NF-KB, such as rheumatoid arthritis.
To construct a vector containing the NF-KB promoter element, a PCR based strategy is employed. The upstream primer contains four tandem copies of the NF-KB binding site ([…]) (SEQ ID NO: 48), 18 bp of sequence complementary to the 5′ end of the SV40 early promoter sequence, and is flanked with an XhoI site: […]

In the case of `C[C@H](Sc1nc(N)cc(Cl)n1)c1cc2ccoc2cn1` [PNU-142721], the “activity relative to its predecessor delavirdine” value (HIV) is listed as 20- to 50 fold.

For `CC[C@H]1C(=O)Nc2ccc(F)cc2N1C(=O)OC(C)C` [GW-420867×], the “activity relative to HBY097” value (HIV) is listed as 25 fold.

In the case of `Nc1nc(=O)n([C@@H]2CS[C@H](CO)O2)cc1F` [emtricitabine], the “activity in vitro relative to lamivudine (3TC)” value (HIV; in vitro) is listed as 3- to 10 fold.

With TNF alpha the “activation (SEAP reporter activity)” value (NF-KB) was 5-10 fold.
